Measurements from patent publication US20120115907A1, “NOVEL COMPOUNDS AS INHIBITORS OF RENIN” (CADILA HEALTHCARE LIMITED, priority 2009, published 2012).
pIC50: −log10 of the molar value. Counter-ions that a name gives are not always drawn.

Target: T1, human recombinant renin (Homo sapiens, UniProt P00797)
T1 construct: purchased Cayman 10006270
T1 sequence (P00797 67-406): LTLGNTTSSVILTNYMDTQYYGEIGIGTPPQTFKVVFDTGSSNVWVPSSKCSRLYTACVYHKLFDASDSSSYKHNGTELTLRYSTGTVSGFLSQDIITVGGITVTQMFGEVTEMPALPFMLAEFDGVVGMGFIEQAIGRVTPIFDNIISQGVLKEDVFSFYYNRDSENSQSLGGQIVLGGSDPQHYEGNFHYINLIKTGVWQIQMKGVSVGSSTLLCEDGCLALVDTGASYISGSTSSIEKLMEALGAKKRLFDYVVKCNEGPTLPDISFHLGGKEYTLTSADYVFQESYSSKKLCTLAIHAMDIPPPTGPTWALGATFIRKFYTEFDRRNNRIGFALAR
Assay: Inhibition of human recombinant renin (modified Cayman renin inhibitor screening assay, fluorescence)
Format: biochemical
Conditions: for inhibition at 0.01 µM / Renin inhibition (percent inhibition of renin activity) at 0.01 μM: 0.01 μM compound; for inhibition at 0.01 µM / inhibition at 0.1 µM / Renin inhibition (percent inhibition of renin activity) at 0.01 μM / Renin inhibition (percent inhibition of renin activity) at 0.1 μM: 37° C., 30 mins, human recombinant renin; for inhibition at 0.01 µM: read-out: Renin inhibition (percent inhibition of renin activity) at 0.01 μM; for inhibition at 0.1 µM / Renin inhibition (percent inhibition of renin activity) at 0.1 μM: 0.1 μM compound; for inhibition at 0.1 µM: read-out: Renin inhibition (percent inhibition of renin activity) at 0.1 μM
Method: In-vitro protocol for the Inhibition of human recombinant renin by the compound of invention • Procedure: The enzymatic in vitro assay was performed in 96 well polypropylene plate (Nunc), using a modified Renin inhibitor screening assay protocol (Cayman, cat no: 10006270). The reaction system comprised assay buffer containing 50 mM Tris-HCL, pH=8.0 & 100 mM sodium chloride, human recombinant rennin (1:20 diluted with fixed activity), synthetic renin substrates (Cayman, cat no: 10006906) (14.4 μM) and different concentrations of renin inhibitors in DMSO in a total reaction system of 100 μl. The entire reaction mixture were incubated at 37° C. for 30 mins and the fluorescence was read at excitation wavelengths of 320-360 nm and emission wavelengths of 490-520 nm. Test compounds efficacy was determined by the percent inhibition of renin activity using Aliskiren (Tekturna) as a reference standard.
Following table represents measured IC50 values of the selected compounds for its inhibition of human recombinant renin.

inhibition at 0.01 µM [%]	inhibition at 0.1 µM [%]	Compound	other results
42	81	Cc1cc(Cl)c(OCCOc2ccc(C(=O)NC3CCNCC3C(=O)N(Cc3ccc(Cl)cc3Cl)C3CC3)cc2)c(Cl)c1 (mixture of isomers) [Example 5, N-Cyclopropyl-4-(4-(2-(2,6-dichloro-4-methylphenoxy)ethoxy)benzamido)-N-(2,4-dichlorobenzyl)piperidine-3-carboxamide]	pIC50: 7.41
< 10	47	Cc1cc(C)cc(CN(C(=O)C2CNCCC2NC(=O)c2ccc(OCCOc3c(Cl)cccc3Cl)cc2)C2CC2)c1 (stereo not shown) [Example 4, N-Cyclopropyl-4-(4-(2-(2,6-dichlorophenoxy)ethoxy)benzamido)-N-(3,5-dimethylbenzyl)piperidine-3-carboxamide]	
< 10	41	COc1ccc(CN(C(=O)C2CNCCC2NC(=O)c2ccc(OCCOc3c(Cl)cc(C)cc3Cl)cc2)C2CC2)cc1OC (stereo not shown) [Example 8, N-Cyclopropyl-4-(4-(2-(2,6-dichloro-4-methylphenoxy)ethoxy)benzamido)-N-(3,4-dimethoxybenzyl)piperidine-3-carboxamide]	
< 10	44	Cc1cc(C)cc(CN(C(=O)C2CNCCC2NC(=O)c2ccc(OCCOc3c(Cl)cc(C)cc3Cl)cc2)C2CC2)c1 (stereo not shown) [Example 10, N-Cyclopropyl-4-(4-(2-(2,6-dichloro-4-methylphenoxy)ethoxy)benzamido)-N-(3,5-dimethylbenzyl)piperidine-3-carboxamide]	
43	89	Cc1cc(Cl)c(OCCOc2ccc(C(=O)NC3CCNCC3C(=O)N(Cc3ccc4ccccc4c3)C3CC3)cc2)c(Cl)c1 (stereo not shown) [Example 12, N-Cyclopropyl-4-(4-(2-(2,6-dichloro-4-methylphenoxy)ethoxy)benzamido)-N-(naphthalen-2-ylmethyl)piperidine-3-carboxamide]	pIC50: 7.19
48	91	Cc1cc(Cl)c(OCCOc2ccc(C(=O)N[C@H]3CCNCC3C(=O)N(Cc3cccc(C)c3C)C3CC3)cc2)c(Cl)c1 (stereo partly drawn) [Example 20, (4S)—N-Cyclopropyl-4-(4-(2-(2,6-dichloro-4-methylphenoxy)ethoxy)benzamido)-N-(2,3-dimethylbenzyl)piperidine-3-carboxamide hydrochloride]	pIC50: 7.89
< 10	40	Cc1cc(Cl)c(OCCOc2ccc(C(=O)N[C@@H]3CCNCC3C(=O)N(Cc3ccc(C)c(C)c3)C3CC3)cc2)c(Cl)c1 (stereo partly drawn) [Example 22, (4R)—N-Cyclopropyl-4-(4-(2-(2,6-dichloro-4-methylphenoxy)ethoxy)benzamido)-N-(3,4-dimethylbenzyl)piperidine-3-carboxamide hydrochloride]	
10	83	Cc1cc(Cl)c(OCCOc2ccc(C(=O)N[C@@H]3CCNCC3C(=O)N(Cc3cccc(C)c3C)C3CC3)cc2)c(Cl)c1 (stereo partly drawn) [Example 24, (4R)—N-Cyclopropyl-4-(4-(2-(2,6-dichloro-4-methylphenoxy)ethoxy)benzamido)-N-(2,3-dimethylbenzyl)piperidine-3-carboxamide hydrochloride]	
11	65	Cc1cc(Cl)c(OCCOc2ccc(C(=O)N[C@H]3CCNCC3C(=O)N(Cc3ccccc3F)C3CC3)cc2)c(Cl)c1 (stereo partly drawn) [Example 29, (4S)—N-Cyclopropyl-4-(4-(2-(2,6-dichloro-4-methylphenoxy)ethoxy)benzamido)-N-(2-fluorobenzyl)piperidine-3-carboxamide hydrochloride]	
< 10	87	Cc1cc(Cl)c(OCCOc2ccc(C(=O)N[C@H]3CCNCC3C(=O)N(Cc3ccccc3Cl)C3CC3)cc2)c(Cl)c1 (stereo partly drawn) [Example 30, (4S)—N-(2-Chlorobenzyl)-N-cyclopropyl-4-(4-(2-(2,6-dichloro-4-methylphenoxy)ethoxy)benzamido)piperidine-3-carboxamide hydrochloride]	
60	95	Cc1cc(Cl)c(OCCOc2ccc(C(=O)N[C@H]3CCNCC3C(=O)N(Cc3cccc(Cl)c3Cl)C3CC3)cc2)c(Cl)c1 (stereo partly drawn) [Example 35, (4S)—N-Cyclopropyl-4-(4-(2-(2,6-dichloro-4-methylphenoxy)ethoxy)benzamido)-N-(2,3-dichlorobenzyl)piperidine-3-carboxamide hydrochloride]	
24	81	COc1cccc(CN(C(=O)C2CNCC[C@@H]2NC(=O)c2ccc(OCCOc3c(Cl)cc(C)cc3Cl)cc2)C2CC2)c1C (stereo partly drawn) [Example 37, (4S)—N-Cyclopropyl-4-(4-(2-(2,6-dichloro-4-methylphenoxy)ethoxy)benzamido)-N-(3-methoxy-2-methylbenzyl)piperidine-3-carboxamide hydrochloride]	pIC50: 7.77

The remaining lines, values behind:

Compound	inhibition at 0.01 µM [%]	inhibition at 0.1 µM [%]	other results
COCCCOc1cccc(CN(C(=O)C2CNCCC2NC(=O)c2ccc(OCCOc3c(Cl)cccc3Cl)cc2)C2CC2)c1 (stereo not shown) [Example 3, N-Cyclopropyl-4-(4-(2-(2,6-dichlorophenoxy)ethoxy)benzamido)-N-(3-(3-methoxypropoxy)benzyl)piperidine-3-carboxamide]	< 10	43	
O=C(NC1CCNCC1C(=O)N(Cc1ccc(Cl)cc1Cl)C1CC1)c1ccc(OCCOc2c(Cl)cccc2Cl)cc1 (stereo not shown) [Example 6, N-Cyclopropyl-N-(2,4-dichlorobenzyl)-4-(4-(2-(2,6-dichlorophenoxy)ethoxy)benzamido) piperidine-3-carboxamide]			Renin inhibition (percent inhibition of renin activity) at 0.01 μM: * (Inactive at tested concentration); Renin inhibition (percent inhibition of renin activity) at 0.1 μM: 40%
COc1cccc(CN(C(=O)C2CNCC[C@@H]2NC(=O)c2ccc(OCCOc3c(Cl)cc(C)cc3Cl)cc2)C2CC2)c1OC.Cl (stereo partly drawn) [Example 14, (4S)—N-cyclopropyl-4-(4-(2-(2,6-dichloro-4-methylphenoxy)ethoxy)benzamido)-N-(2,3-dimethoxybenzyl)piperidine-3-carboxamide hydrochloride]	19		Renin inhibition (percent inhibition of renin activity) at 0.1 μM (hydrochloride, 0.1 µM): 66%
COc1cccc(CN(C(=O)C2CNCC[C@@H]2NC(=O)c2ccc(OCCOc3c(Cl)cc(C)cc3Cl)cc2)C2CC2)c1OC.Cl (stereo partly drawn) [Example 15, (4S)—N-cyclopropyl-4-(4-(2-(2,6-dichloro-4-methylphenoxy)ethoxy)benzamido)-N-(2,3-dimethoxybenzyl)piperidine-3-carboxamide hydrochloride]			Renin inhibition (percent inhibition of renin activity) at 0.01 μM (hydrochloride, 0.01 µM): 13%; Renin inhibition (percent inhibition of renin activity) at 0.1 μM (hydrochloride, 0.1 µM): 12%
COc1ccccc1COCCOc1ccc(C(=O)N[C@H]2CCNCC2C(=O)N(Cc2cccc(C)c2C)C2CC2)cc1 (stereo partly drawn) [Example 16, (4S)—N-Cyclopropyl-N-(2,3-dimethylbenzyl)-4-(4-(2-((2-methoxybenzyl)oxy)ethoxy)benzamido)piperidine-3-carboxamide]	11	52	
Cc1cc(Cl)c(OCCOc2ccc(C(=O)N[C@H]3CCNCC3C(=O)N(Cc3ccc(C)c(C)c3)C3CC3)cc2)c(Cl)c1.Cl (stereo partly shown) [Example 18]			Renin inhibition (percent inhibition of renin activity) at 0.01 μM: 20%; Renin inhibition (percent inhibition of renin activity) at 0.1 μM: 56%
COc1ccccc1COCCCOc1ccc(C(=O)N[C@H]2CCNCC2C(=O)N(Cc2cccc(C)c2C)C2CC2)cc1.Cl (stereo partly shown) [Example 27]			Renin inhibition (percent inhibition of renin activity) at 0.01 μM (hydrochloride): * (Inactive at tested concentration); Renin inhibition (percent inhibition of renin activity) at 0.1 μM (hydrochloride, 0.1 µM): 38%
COc1ccccc1COCCCOc1ccc(C(=O)N[C@H]2CCNCC2C(=O)N(Cc2cccc(C)c2C)C2CC2)cc1 (stereo partly drawn) [Example 28, (4S)—N-Cyclopropyl-N-(2,3-dimethylbenzyl)-4-(4-(3-((2-methoxybenzyl)oxy)propoxy)benzamido)piperidine-3-carboxamide hydrochloride]	60	93	
COc1ccccc1COCCCOc1ccc(C(=O)N[C@H]2CCNCC2C(=O)N(Cc2ccccc2OC)C2CC2)cc1 (stereo partly drawn) [Example 33, (4S)—N-Cyclopropyl-N-(2-methoxybenzyl)-4-(4-(3-((2-methoxybenzyl)oxy)propoxy)benzamido)piperidine-3-carboxamide hydrochloride]	< 10	17	
